# Molecular target: T1, CCR3 receptor (Homo sapiens, UniProt P51677)
# T1 construct: expressed in transfected cells; host or cells: K562 cells
# T1 sequence (P51677 1-355): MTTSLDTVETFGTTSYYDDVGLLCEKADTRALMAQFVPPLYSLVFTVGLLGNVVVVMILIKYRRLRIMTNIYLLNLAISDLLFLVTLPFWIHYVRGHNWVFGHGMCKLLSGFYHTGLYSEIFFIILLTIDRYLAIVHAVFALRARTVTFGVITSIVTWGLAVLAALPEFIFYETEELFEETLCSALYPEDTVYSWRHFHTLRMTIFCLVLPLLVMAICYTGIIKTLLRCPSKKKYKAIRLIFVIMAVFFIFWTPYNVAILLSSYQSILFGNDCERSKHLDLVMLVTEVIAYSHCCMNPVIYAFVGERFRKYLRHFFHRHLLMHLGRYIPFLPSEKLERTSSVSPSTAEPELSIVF
# Experiment: Inhibition of eotaxin-induced intracellular calcium concentration increase in CCR3-expressing cells
# Assay type: cell-based
# Conditions: 2 μM concentration of compound; CCR3-expressing K562 cells; human eotaxin 0.5 μg/ml; read-out: inhibition of eotaxin-induced intracellular calcium concentration increase (Suppression)
# Description: Measurement of Inhibiting Power of Test Compounds Against Eotaxin-Induced Intracellular Calcium Concentration Increase in CCR3-Expressing Cells
# K562 cells stably expressing CCR3 receptor were used in the following method for measurement of the inhibiting power of compounds of the invention against intracellular calcium concentration increase.
# The CCR3-expressing K562 cells were suspended in HBSS solution (Hanks' Balanced Salt Solution, Gibco BRL) containing 10 mM HEPES (N-[2-hydroxyethyl]piperazine-N′-[2-ethanesulfonic acid], Gibco BRL), and then 1 mM Fura-2 acetoxymethyl ester (product of Dojin Kagaku) was added to a final concentration of 1 μM and the mixture was incubated at 37° C. for 30 minutes. After rinsing the cells, they were added simultaneously with the test compound into a 96-well white plate (Falcon), the agonist was added after 5 minutes, the mixture was excited at 340 nm and 380 nm, and the 340/380 ratio was monitored to measure the intracellular calcium concentration. Human eotaxin (product of Genzyme Techne) (0.5 μg/ml) was used as an agonist. The inhibiting power of the test compound was determined by measuring the intracellular calcium concentration upon treatment of the CCR3-expressing K562 cells with the test compound 5 minutes before eotaxin stimulation, and calculating the suppression by the following formula. Suppression (%)={1−(A−B)/(C−B)}×100 (A: Intracellular calcium concentration upon stimulation with eotaxin after treatment with test compound, B: Intracellular calcium concentration without stimulation, C: Intracellular calcium concentration upon stimulation with eotaxin without treatment with test compound)
row,inhibition at 2 µM [%],Compound
1,≥ 80,"CC(=O)NCCC(=O)Nc1cccc2[nH]c(NCC3CCN(Cc4cccc5ccccc45)CC3)nc12 [1-3-1, 3-acetylamino-N-{2-[(1-naphthalen-1-ylmethyl-piperidin-4-ylmethyl)-amino]-1H-benzimidazol-4-yl}-propionamide]"
2,20 to 50,"COC(=O)c1cccc2[nH]c(NCC3CCN(Cc4cc(Cl)cc(Cl)c4O)CC3)nc12 [1-4-1, 2-{[1-(3,5-dichloro-2-hydroxy-benzyl)-piperidin-4-ylmethyl]-amino}-1H-benzimidazole-4-carboxylic acid methyl ester]"
3,≥ 80,"COCCNC(=O)c1cccc2[nH]c(NCC3CCN(Cc4cc(Cl)ccc4O)CC3)nc12 [1-4-10, 2-{[1-(5-chloro-2-hydroxy-benzyl)-piperidin-4-ylmethyl]-amino}-1H-benzimidazole-4-carboxylic acid (2-methoxy-ethyl)-amide]"

# Same assay, conditions: 10 μM concentration of compound; CCR3-expressing K562 cells; human eotaxin 0.5 μg/ml; read-out: inhibition of eotaxin-induced intracellular calcium concentration increase (Suppression)
row,Compound,inhibition at 10 µM [%]
1,"Clc1ccc(CN2CCC(CNc3nc4ccccc4[nH]3)CC2)cc1Cl [1-1-1, (1H-benzoimidazol-2-yl)-[1-(3,4-dichloro-benzyl)-piperidin-4-ylmethyl]-amine]",≥ 80
2,"c1ccc(CCCCN2CCC(CNc3nc4ccccc4[nH]3)CC2)cc1 [1-2-170, (1H-benzimidazol-2-yl)-[1-(4-phenyl-butyl)-piperidin-4-ylmethyl]-amine]",50 to 80
3,"Nc1cccc2[nH]c(NCC3CCN(Cc4ccc(Cl)c(Cl)c4)CC3)nc12 [1-3-61, N2-[1-(3,4-dichlorobenzyl)-piperidin-4-ylmethyl]-1H-benzimidazole-2,4-diamine]",≥ 80
4,"O=C(O)c1ccc2[nH]c(NCC3CCN(CCCc4ccccc4)CC3)nc2c1 [1-5-20, 2-{[1-(3-phenyl-propyl)-piperidin-4-ylmethyl]-amino}-1H-benzimidazole-5-carboxylic acid]",50 to 80

# The remaining lines, values ahead:
row,inhibition at 10 µM [%],Compound
1,≥ 80,"CCNC(=O)Nc1cccc2[nH]c(NCC3CCN(Cc4ccc(Cl)c(Cl)c4)CC3)nc12 [1-3-59, 1-(2-{[1-(3,4-dichloro-benzyl)-piperidin-4-ylmethyl]-amino}-1H-benzimidazol-4-yl)-3-ethyl-urea]"
2,≥ 80,"Cn1c(CN2CCC(CNc3nc4ccccc4[nH]3)CC2)cc2ccccc21 [1-2-1, (1H-benzimidazol-2-yl)-[1-(1-methyl-1H-indol-2-ylmethyl)-piperidin-4-ylmethyl]-amine]"

# Reference: patent US7517875B2, “Piperidine derivatives having CCR3 antagonism” (Teijin Limited, priority 2002, dated 2009)
